Laboratory results as given in PubChem BioAssay (NCI).
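Dose response: 5 concentrations. Exposure: 48 h. Format: 96-well plates. Endpoint: linear interpolation; highest concentration if not reached. TGI is the concentration that stops growth completely.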

Key:
Assay in all cases: growth of human tumour cells (NCI), 48 h
KM20L2 colon = test system: KM20L2 colon
DLD-1 colon = test system: DLD-1 colon
DMS 114 small cell lung = test system: DMS 114 small cell lung
DMS 273 small cell lung = test system: DMS 273 small cell lung
NCI-H23 lung = test system: NCI-H23 lung
LXFL 529 NSCLC = test system: LXFL 529 NSCLC
SK-OV-3 ovarian = test system: SK-OV-3 ovarian
EKVX NSCLC = test system: EKVX NSCLC
SN12C renal = test system: SN12C renal
M19-MEL melanoma = test system: M19-MEL melanoma
HOP-18 NSCLC = test system: HOP-18 NSCLC
IGROV1 ovarian = test system: IGROV1 ovarian
SNB-78 CNS = test system: SNB-78 CNS
RXF-631 renal = test system: RXF-631 renal
XF 498 CNS = test system: XF 498 CNS

Structure (SMILES)	TGI (KM20L2 colon)	TGI (DLD-1 colon)	TGI (DMS 114 small cell lung)	TGI (DMS 273 small cell lung)	TGI (NCI-H23 lung)	TGI (LXFL 529 NSCLC)	TGI (SK-OV-3 ovarian)	TGI (EKVX NSCLC)	TGI (SN12C renal)	TGI (M19-MEL melanoma)	TGI (HOP-18 NSCLC)	TGI (IGROV1 ovarian)	TGI (SNB-78 CNS)	TGI (RXF-631 renal)	TGI (XF 498 CNS)
CC[N+]1(C)CCC(O)(c2ccccc2)C(C(=O)c2ccccc2)C1 (configuration not stated)	44.5 µM	27.2 µM	44.3 µM	47.1 µM	40.8 µM	23.6 µM	32.1 µM	43.4 µM	21.6 µM	36 µM	31 µM	38.6 µM	–	–	–
COC(=O)c1c2c(c(-c3ccccc3)c3c1-c1nc(Cl)ccc1CC3)CCc1ccc(Cl)nc1-2	> 100 µM	> 100 µM	–	–	> 100 µM	> 100 µM	> 100 µM	> 100 µM	> 100 µM	> 100 µM	> 100 µM	> 100 µM	> 100 µM	> 100 µM	–
COc1ccc(/C=C2\SC(c3ccc(OC)cc3)N(NC(=O)Cc3ccccc3)C2=O)cc1 (configuration not stated)	–	> 100 µM	> 100 µM	> 100 µM	> 100 µM	> 100 µM	> 100 µM	–	> 100 µM	> 100 µM	> 100 µM	> 100 µM	–	–	–
CCCc1c(C(=O)OCC)[nH]c(-c2ccc(-c3[nH]c(C(=O)OCC)c(CCC)c3C(=O)OCC)o2)c1C(=O)OCC	> 100 µM	> 100 µM	> 100 µM	> 100 µM	> 100 µM	> 100 µM	> 100 µM	> 100 µM	> 100 µM	> 100 µM	> 100 µM	> 100 µM	> 100 µM	–	> 100 µM
Cc1ccc2c(c1)SC(c1cc3c(cc1Br)OCO3)S2 (configuration not stated)	> 31.6 µM	> 31.6 µM	> 31.6 µM	> 31.6 µM	> 31.6 µM	> 31.6 µM	> 31.6 µM	> 31.6 µM	> 31.6 µM	> 31.6 µM	> 31.6 µM	> 31.6 µM	> 31.6 µM	–	> 100 µM
CCOC(=O)C(=Cc1cc(OC)ccc1OC)C(=O)OCC	17.5 µM	21.8 µM	11.8 µM	14.2 µM	10.9 µM	12.2 µM	29.9 µM	31.3 µM	26.3 µM	17.9 µM	23.6 µM	58.5 µM	–	32.5 µM	23.6 µM
CC1(Br)C(=O)NC(=O)N(C2CC(N=[N+]=[N-])C(CO)O2)C1N=[N+]=[N-] (configuration not stated)	> 100 µM	> 100 µM	> 100 µM	> 100 µM	> 100 µM	> 100 µM	> 100 µM	> 100 µM	> 100 µM	> 100 µM	–	> 100 µM	> 100 µM	> 100 µM	> 100 µM
Cc1nc(-c2nc(C)c(C(=O)NN(C)C)s2)sc1C(=O)NN(C)C	> 100 µM	> 100 µM	–	38.9 µM	> 100 µM	> 100 µM	> 100 µM	> 100 µM	> 100 µM	> 100 µM	> 100 µM	> 100 µM	> 100 µM	–	> 100 µM
CCOC(=O)[C@H]1Nc2ccc(Cl)cc2[C@H]2OCC[C@@H]12	> 100 µM	> 100 µM	> 100 µM	> 100 µM	> 100 µM	> 100 µM	> 100 µM	> 100 µM	> 100 µM	> 100 µM	> 100 µM	> 100 µM	> 100 µM	> 100 µM	> 100 µM
Cc1nc2ccccc2c(=O)n1NC(=S)Nc1cccc(Cl)c1	–	> 100 µM	–	> 100 µM	> 100 µM	> 100 µM	> 100 µM	–	> 100 µM	> 100 µM	> 100 µM	> 100 µM	–	–	–
COc1ccc(N2C(=O)c3cccnc3S2(=O)=O)cc1	–	–	–	–	> 100 µM	–	> 100 µM	> 100 µM	> 100 µM	–	–	> 100 µM	–	–	–
NCCCCN(CCCN)Cc1ccccc1	–	–	–	–	> 100 µM	–	> 100 µM	> 100 µM	> 100 µM	–	–	> 100 µM	–	–	–
Nc1nc(Cl)cc(NCC2(CO)CCC(O)C2)n1 (configuration not stated)	–	–	–	–	> 100 µM	–	> 100 µM	> 100 µM	> 100 µM	–	–	> 100 µM	–	–	–
CCN1C(=O)c2ccccc2C1(O)c1ccc(Cl)cc1 (configuration not stated)	–	–	–	–	> 100 µM	–	> 100 µM	> 100 µM	> 100 µM	–	–	> 100 µM	–	–	–
CC(C)Oc1ccc(CNC2=NCCO2)c2ccccc12	–	–	–	–	30.2 µM	–	30.9 µM	29.2 µM	32.2 µM	–	–	27.9 µM	–	–	–
